Measurements published in patent publication US20220265646A1, “PIEZO AGONISTS FOR PREVENTING OR REVERTING ABNORMAL AMYLOID DEPOSITION” (ITÄ-SUOMEN YLIOPISTO, priority 2019, published 2022).

Key:
[1] = system: 5xFAD transgenic mice modeling Alzheimer's disease; experiment: 5xFAD transgenic mice, intraventricular cannula infusion, immunohistochemistry for Iba1 and Aβ (WO2); assay type: in vivo, mouse; conditions: 5xFAD mice, treated for 2 weeks
Text: To evaluate the effect of microglial Piezo1 Rs mechanosensor in vivo the present inventors used 5-month-old transgenic SXFAD male mice (Jackson Laboratories, Bar Harbor, Me., US) which were randomly divided into 3 groups. 5xFAD mice express human APP and PSEN1 transgenes with a total of five AD-linked mutations: the Swedish (K670N/M671L), Florida (1716V), and London (V7171) mutations in APP, and the M146L and L286V mutations in Presenilin-1 (PSEN1). These widely used mice recapitulate many AD-related phenotypes and have a relatively early and aggressive presentation. Amyloid plaques, accompanied by gliosis, are seen in mice as young as two months of age. Amyloid pathology is more severe in females than in males. Neuron loss occurs in multiple brain regions, beginning at about 5 months in the areas with the most pronounced amyloidosis. Mice display a range of cognitive and motor deficits. The animals were implanted with the intraventricular cannulas. Briefly, surgical anesthesia was induced using 5% isoflurane and maintained with 1.8% isoflurane (in 30% 02/70% N20). The temperature of the animals was maintained at 37±0.5° C. using a thermostatically controlled heating blanket with a rectal probe (Pan Lab, Harvard Apparatus). After the skull was exposed a small hole approximately 1 mm in diameter was drilled into the left hemisphere of the skull using following coordinates: m/l (medial/lateral) +1.1 mm, a/p (anterior/posterior) −0.3 mm, d/v (dorsal/ventral) −2.0 mm. […]
Brain sample preparation and Immunohistochemistry. […] Next, Aβ deposits and microglial were detected. […] For quantification of Aβ and Iba1 immunoreactivities, the stained sections were imaged using 10× magnification in Zeiss Axio ImagerM.2 microscope equipped with Axiocam 506 mono CCD camera (Carl Zeiss, Oberkochen) running ZEN software (Carl Zeiss) for tailing and stitching of the images. Cortical and hippocampal Aβ and Iba1 immunoreactivities were quantified from 6 stained sections at 400 μm intervals per animal using MatLab code (MathWorks, MatLab 2017b). […]

primary cortical neurons = experiment: Measurement of neurite outgrowth in primary cortical neurons; assay type: cell-based, mouse; conditions: 5 μM Yoda1, imaging over 150 hours, versus vehicle
Description: Measurement of neurite outgrowth in primary cortical neurons. Primary cortical neuron cultures were prepared from mouse embryos of embryonic day 15. The cortices were dissected, and tissue dissociated with 0.0125% trypsin (for 15 min at 37° C., Sigma-Aldrich, St. Louis, Mo., USA). After trypsin inactivation and washing the cells were counted and plated on 48-well-plates (coated with poly-D-lysine, Sigma-Aldrich, St. Louis, Mo., USA) at a density of 125 000 cells/well or on 6-well-plates at a density of 1.8 million cells/well in Neurobasal media supplemented with 2% B27 and 500 μM L-glutamine (all ThermoFisher Scientific, Waltham, Mass., USA) and 10 μg/ml of gentamicin (Sigma Aldrich, St. Louis, Mo., USA). On day 3 or 5 in vitro (DIV) the neurons were fed by changing 50% of media. The neurons were placed in IncuCyte® S3 Live Cell Analysis System (Essen
BioScience Ltd., Hertfordshire, UK) on DIV 0 and treated with 5 μM Yoda1 (Tocris, Bio-Techne Ltd., Abingdon, Oxfordshire, UK) once on DIV 0 or daily until DIV 7, and images were taken every 8 hours for the analysis of neurite length and branch points.

N2a cells = experiment: Apoptosis assay in N2a cells under hypoxia; assay type: cell-based; conditions: 5 μM Yoda1 three days, 1% hypoxia 24 h
Description: Apoptosis assay in N2a cells. N2a cells were treated with 5 μM Yoda1 or vehicle for three consecutive days and exposed to 1% hypoxia as described above for 24 h before collecting the cells for apoptosis assay. The apoptotic cells were labeled with APC Annexin Ready Flow -dye (1:12.5 dilution, Invitrogen, Carlsbad, Calif., USA) in Annexin V Binding Buffer (10 mM HEPES, 150 mM NaCl, 2.5 mM CaCl2 in PBS, pH 7.4). 4′,6-Diamidino-2-Phenylindole, Dilactate (DAPI; Invitrogen, Carlsbad, Calif., USA) staining was added at 1:3300 dilution to label late apoptotic and necrotic cells. The samples were run with CytoFLEX S instrument (Beckman Coulter Life Sciences, Indianapolis, Ind., USA), and the results were analysed with CytExpert software (version 2.3.0.84, Beckman Coulter Life Sciences, Indianapolis, Ind., USA). The results of hypoxic samples were normalized to corresponding normoxic samples.

[2] = 0.05 μg/μl, 5 μl infusion once a day

SMILES: Clc1cccc(Cl)c1CSc1nnc(-c2cnccn2)s1 [Yoda1]
- microglial accumulation near the Aβ deposits [1]: enhanced microglial accumulation
- Iba1 immunoreactivity in cortex and hippocampus [1, 2]: significantly increased
- extent of brain Aβ load in cortex and hippocampi (WO2 staining) [1, 2]: significant reduction
- branch points of neurites (primary cortical neurons): more branching points
- neurite length (primary cortical neurons): extended neurite length
- hypoxia-induced early apoptosis (N2a cells): almost completely block
- hypoxia-induced late apoptosis (N2a cells): almost completely block
